Results reported in patent publication US7943655B2, “Polymorphic and pseudopolymorphic forms of trandolaprilat, pharmaceutical compositions and methods for production and use” (Universitat Zurich, priority 2006, dated 2011).
“And” between values parts separate entries of the source, which are not always exact repeats. Equal entries are not always repeated.

Experiments:
[1] = Storage stability of crystalline forms (decomposition to Trandolaprilat diketopiperazine, by HPLC); assay type: physicochemical; settings: for Amount of Trandolaprilat Diketopiperazine after Isolation and Drying of the Wet Product: before storage; for Tendency to decompose to Trandolaprilat Diketopiperazine on storage (in words): comparison of crystalline forms, Table 9
Description: Purity was determined by HPLC using a Luna C18 (150×4.6 mm, 3 μm; Manufacturer: Phenomenex, Torrence, Calif., USA) column, as well as a Symmetry C18(2) (150×4.6 mm, 3.5 μm; Manufacturer: Waters Corporation, Millford, Mass., USA) column using as mobile phase: Mobile phase A: 0.03% v/v of trifluoroacetic acid in water; Mobile phase B: 0.025% v/v of trifluoroacetic acid in acetonitrile; column temperature 30° C., flow rate: 1.5 ml/min, detection: UV 206 nm; eluent gradient: […]

[2] = Degradation to Trandolaprilat diketopiperazine in non-hydroxylic solvent (THF solution); assay type: physicochemical
Excerpt: Furthermore, crystallization and precipitation from non-hydroxylic solvents often provided a resin that could only be difficultly handled.

[3] = Solubility in n-butanol with and without water; assay type: physicochemical
Excerpt: In step (f), an amount of water is removed from the solution of step (e) that is sufficient for inducing crystallization of the Trandolaprilat and provide crystalline Trandolaprilat in a polymorphic or pseudopolymorphic form. Because Trandolaprilat is not soluble in anhydrous n-butanol, its crystallization from the organic layer can be initiated by removing the water, for example, by concentrating an n-butanol/water solution containing the Trandolaprilat using azeotropic distillation (to provide crystalline Trandolaprilat).

[4] = biological target: Angiotensin Converting Enzyme (ACE enzyme) (Homo sapiens, UniProt P12821); settings: compared with Trandolapril; cited from earlier work
Chain of Angiotensin Converting Enzyme (ACE enzyme) (P12821 30-1306, species assumed): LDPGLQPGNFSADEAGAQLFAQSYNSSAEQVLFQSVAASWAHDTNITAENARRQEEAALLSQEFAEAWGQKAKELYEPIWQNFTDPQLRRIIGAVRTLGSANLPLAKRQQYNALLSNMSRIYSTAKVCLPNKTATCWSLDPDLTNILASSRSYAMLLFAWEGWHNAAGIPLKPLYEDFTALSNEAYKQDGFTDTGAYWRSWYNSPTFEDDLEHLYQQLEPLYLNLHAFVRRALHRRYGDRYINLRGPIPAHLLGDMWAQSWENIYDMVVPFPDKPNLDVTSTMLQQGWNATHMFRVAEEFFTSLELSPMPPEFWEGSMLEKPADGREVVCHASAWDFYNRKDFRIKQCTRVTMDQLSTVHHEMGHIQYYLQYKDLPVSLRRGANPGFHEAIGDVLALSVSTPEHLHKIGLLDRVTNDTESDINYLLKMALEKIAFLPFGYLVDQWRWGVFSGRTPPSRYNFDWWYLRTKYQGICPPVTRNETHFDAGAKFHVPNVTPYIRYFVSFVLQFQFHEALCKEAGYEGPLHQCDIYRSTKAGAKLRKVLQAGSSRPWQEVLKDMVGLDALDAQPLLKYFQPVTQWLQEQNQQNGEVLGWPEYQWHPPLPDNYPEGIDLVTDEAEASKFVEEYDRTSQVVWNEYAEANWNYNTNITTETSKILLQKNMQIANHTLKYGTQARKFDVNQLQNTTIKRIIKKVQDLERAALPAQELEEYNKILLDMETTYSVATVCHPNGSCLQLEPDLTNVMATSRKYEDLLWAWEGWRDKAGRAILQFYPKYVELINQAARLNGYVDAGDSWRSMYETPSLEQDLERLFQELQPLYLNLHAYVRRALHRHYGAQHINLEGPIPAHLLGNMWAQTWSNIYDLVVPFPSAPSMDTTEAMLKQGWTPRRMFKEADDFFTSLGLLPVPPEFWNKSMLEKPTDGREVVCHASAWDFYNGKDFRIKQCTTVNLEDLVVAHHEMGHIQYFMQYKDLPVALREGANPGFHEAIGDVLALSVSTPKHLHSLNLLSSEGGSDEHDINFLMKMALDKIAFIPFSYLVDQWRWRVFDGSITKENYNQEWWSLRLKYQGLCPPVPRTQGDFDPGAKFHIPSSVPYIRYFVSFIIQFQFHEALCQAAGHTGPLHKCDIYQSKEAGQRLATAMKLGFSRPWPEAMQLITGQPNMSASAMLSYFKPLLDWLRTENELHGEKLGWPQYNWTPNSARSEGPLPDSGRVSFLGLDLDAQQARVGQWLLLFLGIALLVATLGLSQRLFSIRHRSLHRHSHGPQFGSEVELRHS

[5] = storage temperature 20-25, storage time 4 months

| SMILES | Amount of Trandolaprilat Diketopiperazine after Isolation and Drying of the Wet Product [1] | Tendency to decompose to Trandolaprilat Diketopiperazine on storage (in words) [1] | Amount of Trandolaprilat Diketopiperazine after Storage [1, 5] | Amount of Trandolaprilat Diketopiperazine after Storage ([1]; storage temperature 4-8, storage time 3 months) | Amount of Trandolaprilat Diketopiperazine after Storage ([1]; storage temperature 20-25, storage time 3 months) | Formation of degradation product Trandolaprilat diketopiperazine ([2]; THF solution heated at reflux temperature) | Rate of degradation to Trandolaprilat diketopiperazine ([2]; dissolved in THF, room temperature) | Solubility ([3]; anhydrous n-butanol) | Solubility ([3]; free amino acid form, n-butanol saturated with water) | Potency as an inhibitor of ACE activity relative to Trandolapril [4] |
| --- | --- | --- | --- | --- | --- | --- | --- | --- | --- | --- |
| C[C@H](N[C@@H](CCc1ccccc1)C(=O)O)C(=O)N1[C@H](C(=O)O)C[C@H]2CCCC[C@@H]21 [Form A, Trandolaprilat] | Not Detected | only a very low quantity of the degradation product | 0.02 % by HPLC |  |  |  |  |  |  |  |
| C[C@H](N[C@@H](CCc1ccccc1)C(=O)O)C(=O)N1[C@H](C(=O)O)C[C@H]2CCCC[C@@H]21 [Form B, Trandolaprilat] | Not Detected | significantly lower | 0.20 % by HPLC |  |  |  |  |  |  |  |
| C[C@H](N[C@@H](CCc1ccccc1)C(=O)O)C(=O)N1[C@H](C(=O)O)C[C@H]2CCCC[C@@H]21 [Form C, Trandolaprilat] | Not Detected | significantly lower | 0.26 % by HPLC |  |  |  |  |  |  |  |
| C[C@H](N[C@@H](CCc1ccccc1)C(=O)O)C(=O)N1[C@H](C(=O)O)C[C@H]2CCCC[C@@H]21 [Form D, Trandolaprilat] | Not Detected | only a very low quantity of the degradation product | 0.03 % by HPLC |  |  |  |  |  |  |  |
| C[C@H](N[C@@H](CCc1ccccc1)C(=O)O)C(=O)N1[C@H](C(=O)O)C[C@H]2CCCC[C@@H]21 [Form E, Trandolaprilat] | 0.34 %, by HPLC and 0.19 %, by HPLC | greater tendency to decompose |  | 0.75 % by HPLC | 0.92 % by HPLC |  |  |  |  |  |
| C[C@H](N[C@@H](CCc1ccccc1)C(=O)O)C(=O)N1[C@H](C(=O)O)C[C@H]2CCCC[C@@H]21 [Trandolaprilat] |  |  |  |  |  | almost complete within a few hours | at least 0.2 % per hour | not soluble | soluble | about eight times more potent than Trandolapril |
